Measurements reported in patent US20110281762A1, “High throughput screening for anaerobic microorganisms” (priority 2010, published 2011).

How the values were obtained:
[1] = system: Bt-ΔBT1754; assay: Growth of isogenic mutant Bt-ΔBT1754 in minimal media; format: cell-based, Bacteroides thetaiotaomicron; conditions: fructose-based minimal media
Source text: The hybrid two-component system BT1754 is required for efficient fructan utilization by Bt. We assessed the ability of an isogenic mutant of Bt lacking the BT1754 gene to grow in a panel of fructose-based minimal media (MM) to test if upregulation of the PUL was dependent upon the HTCS signaling sensor. An in-frame, unmarked deletion of BT1754 was constructed using a standard counter-selectable allele-exchange procedure. […] Complementation of this mutant was achieved by introducing the genomic fragment containing BT1754 and its 5′ intergenic upstream promoter region in trans.
(§1) Culturing bacteria. Bacteria were cultured in TYG and MM as described previously. The following bacteria were used: Bt (VPI-5482), B. caccae (ATCC-43185), B. ovatus (ATCC-8483), B. fragilis (NCTC-9343), B. uniformis (ATCC-8492), and B. vulgatus (ATCC-8482). Growth curves in MM were obtained using a Powerwave (Biotek) reading OD600 every 30 min from anaerobic cultures at 37° C.

[2] = system: all six Bacteroides species; assay: Growth of six Bacteroides species on fructose-based glycans; format: cell-based
Source text: (§2) In all six Bacteroides species, the HTCS is adjacent to a predicted fructokinase, a putative inner membrane monosaccharide importer, and GH32-family glycoside hydrolases. In each genome, except that of B. vulgatus, the syntenic regions also contain a susC/susD homologous pair. […] All Bacteroides species tested, except B. vulgatus, were able to grow efficiently using one of the long-chain fructans, inulin or levan. The inability of B. vulgatus to grow on long-chain fructans is consistent with the absence of a susC/susD-like pair within its locus. B. caccae, B. ovatus, B. fragilis and B. uniformis can utilize inulin with efficiency similar to their use of glucose. This contrasts with Bt inulin use, which is only observed after three days (FIG. 5). Bt was the only species tested able to use levan, which was particularly striking when considering the overall similarity in PUL structure between Bt, B. caccae, and B. ovatus.
as §1

[3] = biological target: periplasmic domain of BT1754 (BT1754-PD; residues 29-343) (Bacteroides thetaiotaomicron, UniProt Q8A6X1); assay: Isothermal calorimetry binding to the periplasmic domain of BT1754
Sequence of periplasmic domain of BT1754 (BT1754-PD; residues 29-343) (Q8A6X1 entry or part of it, change not shown): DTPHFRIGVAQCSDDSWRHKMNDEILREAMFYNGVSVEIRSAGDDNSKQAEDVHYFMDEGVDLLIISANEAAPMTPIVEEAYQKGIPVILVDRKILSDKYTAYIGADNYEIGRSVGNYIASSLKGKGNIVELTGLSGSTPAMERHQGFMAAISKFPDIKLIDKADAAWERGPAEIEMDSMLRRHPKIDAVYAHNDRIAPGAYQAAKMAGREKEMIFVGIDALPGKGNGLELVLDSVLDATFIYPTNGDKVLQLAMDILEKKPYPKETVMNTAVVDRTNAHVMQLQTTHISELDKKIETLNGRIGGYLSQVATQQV
Source text: The periplasmic domain of the hybrid two-component system BT1754 binds to monomeric fructose. One of the key unanswered questions concerning the HTCS family, and many extracellular sensory systems, is the identity of the molecular triggers for signaling events. […] (FIG. 2B). […] As PBPs are known to bind small molecules such as sugars, we expressed the periplasmic domain of BT1754 (BT1754-PD; residues 29-343) in a recombinant form and tested for binding to a range of monosaccharides and fructan-derived oligosaccharides to see if direct interaction with a specific carbohydrate is the means of signal perception in BT1754.
Isothermal titration calorimetry. Measurements were carried out essentially as described previously, except that a Microcal VP-ITC machine was used, and proteins were dialyzed into 20 mM Tris-HCl, pH8.0. The assumption that n=1 for BT1762 binding to levan was based on the structure of the starch binding SusD.

[4] = system: Bacteroides thetaiotaomicron (Bt); assay: Growth of Bt in minimal medium with a fructose-based carbohydrate as only carbon source; format: cell-based; conditions: substance as only carbon and energy source; for doubling time: Bt
Source text: Bt upregulates its putative fructan PUL when grown on fructose-containing carbohydrates We inoculated minimal medium containing specific fructose-based carbohydrates as the only carbon and energy source with Bt to test if the bacterium is competent to grow on fructans. Bt grew on a broad range of fructose-based glycans, including free fructose, sucrose, levan (high MW fructose polymer with predominantly β2-6-linkages), and fructo-oligosaccharides (FOS; short-chain β2-1 polymers of 2-10 fructose units) (FIG. 1C). However, Bt grew poorly on inulin (β2-1 fructose polymer with an average degree of polymerization of ˜25), with growth only apparent three days after inoculation. Doubling times on simple monosaccharides and disaccharide were similar to one another.
as §1

[5] = system: Bt and B. caccae; assay: Dietary inulin in gnotobiotic mice bi-associated with Bt and B. caccae, relative fecal proportion by qPCR; format: in vivo, germ-free Swiss-Webster mice
Source text: (§3) Two groups of 8-12-week old, germ-free mice were colonized with equivalent quantities (10^8 colony forming units, CFU) of Bt and B. caccae or Bt and B. vulgatus. Each mouse was maintained on a standard polysaccharide-rich diet for the first 7 days of colonization and then switched to a diet in which the sole polysaccharide was inulin (10% w/w) for an additional 14 days. Mice were individually housed throughout the experiment to ensure no cross inoculation could occur and bedding was changed every two days. Total bacterial colonization density was determined by assessing the CFUs in feces over 21 days. The change in each species' relative abundance before and after dietary inulin supplementation was assessed using species-specific primers in a quantitative PCR assay.
In the previous experiment, inulin was the sole polysaccharide in the diet. We wondered whether we would observe the same inulin-induced increase in B. caccae relative to Bt if other polysaccharides were also present in the diet. To test this, gnotobiotic mice were co-colonized with Bt and B. caccae and maintained on the standard diet with inulin supplementation in the water (1% w/v). Over the 14 days the mice ingested an average of 117±6 mg of inulin daily via the water (compared to 355±7 mg/day with the inulin diet). Fecal samples were tested by qPCR over the course of the 21-day experiment for relative levels of Bt or B. caccae.
We decided to feed mice a custom diet deficient in all polysaccharides and supplement inulin in the water to determine whether a lower dose of inulin in the absence of other polysaccharides was sufficient to provide B. caccae a competitive advantage over Bt in vivo. Under this experimental paradigm the mice consumed an average of 97 mg of inulin per day. After. 14 days on inulin-water supplementation, the proportion of B. caccae increased by 26±8% (FIG. 6D). […] The wide range of polysaccharides present in the standard diet allows Bt to compete effectively with B. caccae even in the presence of inulin.
(§4) Bacterial colonization and density determination of germ-free mice. Germ-free Swiss-Webster mice were maintained in gnotobiotic isolators and fed an autoclaved standard diet (Purina LabDiet 5K67) or custom diet (Bio-Serv, http://bio-serv.com/), in accordance with A-PLAC, the Stanford IACUC. Mice were bi-associated using oral gavage (10^8 CFU of each bacterial species). Relative densities of bacteria were determined by qPCR using strain-specific primers.

[6] = system: B. caccae; assay: Growth on long-chain fructan; format: cell-based; conditions: efficiency similar to use of glucose
Source text: as §2, §1

[7] = system: B. uniformis; assay: Growth on long-chain fructan; format: cell-based; conditions: efficiency similar to use of glucose
Source text: as §2, §1

[8] = system: B. ovatus; assay: Growth on long-chain fructan; format: cell-based; conditions: efficiency similar to use of glucose
Source text: as §2, §1

[9] = system: B. fragilis; assay: Growth on long-chain fructan; format: cell-based; conditions: efficiency similar to use of glucose
Source text: as §2, §1

[10] = system: Bt and B. vulgatus; assay: Dietary inulin in gnotobiotic mice bi-associated with Bt and B. vulgatus, relative fecal proportion by qPCR; format: in vivo, germ-free Swiss-Webster mice
Source text: as §3, §4

[11] = system: B. vulgatus; assay: Growth on long-chain fructan; format: cell-based
Source text: as §2, with “Bt was the only species tested able to use levan, which was particularly striking when considering the overall similarity in PUL structure between Bt, B. caccae, and B. ovatus.” left out
Genomic content of Bacteroides species predicts changes in microbiota composition induced by an inulin-based diet. The differences in ability to utilize fructans between the Bacteroides species implies that the relative success of a species within a gut ecosystem may be determined, in part, by the abundance and type of fructan in the host diet. […] We constructed defined two-member communities of Bacteroides species within the intestines of gnotobiotic mice to test how model microbiotas respond in vivo to dietary inulin, which, unlike levan, is available in pure form in quantities sufficient to conduct such a study. […]

[12] = after two weeks on inulin diet (day 21), n=7 mice

Compound	growth of Bt-ΔBT1754 [1]	growth [2]	growth of Bt [4]	doubling time [4]	also measured
O=C(CO)[C@@H](O)[C@H](O)[C@H](O)CO [fructose]	retarded growth	competent for growth	grew on	–	Kd [3]: ~2000 nM
O=C[C@H](O)[C@H](O)[C@H](O)CO [ribose]	–	–	–	–	interaction with BT1754-PD ([3]; isothermal calorimetry): does not interact
OC[C@H]1O[C@@](CO)(O[C@H]2O[C@H](CO)[C@@H](O)[C@H](O)[C@H]2O)[C@@H](O)[C@@H]1O [sucrose]	retarded growth	competent for growth	grew on	–	–
fructo-oligosaccharides [FOS]	failed to grow	competent for growth	grew on	5.6 h	–
inulin	failed to grow	–	grew poorly	96.4 h	B. caccae proportion of community [5, 12]: 51±6%; Bt proportion of community [5, 12]: approximately 49±6%; increase in proportion of B. caccae ([5]; custom diet deficient in all polysaccharides, inulin in the water, 14 days): 26±8%; increase in proportion of B. caccae ([5]; inulin-only diet experiment, day 6 to day 21): 36±7%; B. caccae proportion of community ([5]; six days after change to inulin-based diet (10% w/w)): 20±4%; Bt proportion of community ([5]; six days after change to inulin-based diet (10% w/w, sole polysaccharide), 87±3% before switch): 80±4%; change in relative colonization of Bt and B. caccae versus controls ([5]; standard diet with inulin in the water (1% w/v), 14 days): no statistical difference; inulin utilization [6]: can utilize; inulin utilization [7]: can utilize; inulin utilization [8]: can utilize; inulin utilization [9]: can utilize; change in community composition ([10]; after 6 days on inulin-based diet): did not exhibit any significant trend; Bt abundance ([10]; day 21, inulin enriched diet, 74±3% on day 6, p=0.1, n=3 mice): 84±5%; inulin utilization [11]: unable to utilize
levan	failed to grow	–	grew on	2.7 h	–
